Read-outs that look alike come from different tables or passages of the source.
Biological target: T1, human full length Hsp90 (Homo sapiens, UniProt P07900)
T1 construct: amino acid residues 1 to 732 of human Hsp90 (GenBank: BC121062.2); made in house; host or cells: E. coli BL21DE3 (pET15b)
Assay: Fluorescence polarization Hsp90 competitive binding assay (GM-FITC displacement)
Settings: for inhibition at 1 µM: compound at 1 μM, read-out: Biochemical Potency % Inhibition at 1 μM; for inhibition at 10 µM: compound at 10 μM, read-out: Biochemical Potency % Inhibition at 10 μM
Experimental: Hsp90 binding assays was performed generally according to the procedure described in J. Biomol. […] Hsp90 inhibitors were solubilized in DMSO at a stock concentration of 50 mM. […] Eighty five μl of binding assay buffer (20 mM HEPES, pH-7.5, 50 mM KCl, 5 mM MgCl2, 20 mM sodium molybdate, 0.01% NP-40, 2 mM DTT, and 0.1 mg/ml BSA) was added to the wells of a 96 well black plate placed on ice. […] Next, 10 μl either binding assay buffer alone (control) or human full length Hsp90 protein diluted in the binding assay buffer was added to achieve a final concentration of 50 nM. The plates were incubated at 4° C. on a plate shaker for 24 h. Two μl of 50× GM-FITC (9 nM final) in DMSO was added to all wells and the plate was incubated at ambient temperature for 1 h with shaking. Fluorescence polarization readings were taken in duplicate at excitation and emission wavelengths of 480 nm and 500 nm respectively. Specific binding was calculated by subtracting polarization values in the presence of Hsp90 from those in the absence of Hsp90. To calculate percent inhibition the specific binding values obtained for GA-FITC in the presence of compound were compared to values for GA-FITC in the absence of compound (DMSO only).

[1] = Table 1, 50 nM Hsp90, 9 nM GM-FITC, read-out: Biochemical Potency IC50
[2] = Table II, binding affinities ranked by potency
[3] = Table II, binding affinities ranked by potency, read-out: IC50

## Cc1cnc(CN(C)c2cc(Cl)nc(N)n2)c(C)c1Br [SBI-0639900, N4-((4-Bromo-3,5-dimethylpyridin-2-yl)methyl)-6-chloro-N4-methylpyrimidine-2,4-diamine]
[1]
  IC50: ≥ 32000 nM
[2]
  Ki: > 8000 nM
[3]
  IC50: > 32000 nM

## COc1c(C)cnc(CN(c2cc(Cl)nc(N)n2)C(C)C)c1C [SBI-0639352, 6-Chloro-N4-isopropyl-N4-((4-methoxy-3,5-dimethylpyridin-2-yl)methyl)pyrimidine-2,4-diamine]
[1]
  IC50: ≥ 32000 nM
[2]
  Ki: > 8000 nM
[3]
  IC50: > 32000 nM

## Cc1cnc(CNc2cc(Cl)nc(N)n2)c(C)c1Cl [SBI-0639217, 6-Chloro-N4-((4-chloro-3,5-dimethylpyridin-2-yl)methyl)pyrimidine-2,4-diamine]
[2]
  Ki: 300 nM
[3]
  IC50: 1200 nM
  inhibition at 1 µM: 47%
  inhibition at 10 µM: 93%

## Cc1cc(C)cc(CNc2cc(C(F)(F)F)nc(N)n2)c1 [SBI-0633823]
[2]
  Ki: > 2500 nM
[3]
  IC50: > 10000 nM
  inhibition at 10 µM: 17%

## CCCCCCN(Cc1ncc(C)c(OC)c1C)c1cc(Cl)nc(N)n1 [SBI-0640609, 6-Chloro-N4-hexyl-N4-((4-methoxy-3,5-dimethylpyridin-2-yl)methyl)pyrimidine-2,4-diamine]
[1]
  IC50: 391 nM
[2]
  Ki: 98 nM
[3]
  IC50: 391 nM

## COc1c(C)cnc(CN(Cc2ccccc2)c2cc(Cl)nc(N)n2)c1C [SBI-0639351, N4-Benzyl-6-chloro-N4-((4-methoxy-3,5-dimethylpyridin-2-yl)methyl)pyrimidine-2,4-diamine]
[1]
  IC50: 2210 nM
[2]
  Ki: 553 nM
[3]
  IC50: 2210 nM

## COc1c(C)cnc(CN(C(=O)C(C)C)c2cc(Cl)nc(N)n2)c1C [SBI-0640644]
[1]
  IC50: 13900 nM
[2]
  Ki: 3480 nM
[3]
  IC50: 13900 nM

## COc1c(C)cnc(CN(C(C)=O)c2cc(Cl)nc(N)n2)c1C [SBI-0640492]
[1]
  IC50: ≥ 32000 nM
[2]
  Ki: > 8000 nM
[3]
  IC50: > 32000 nM

## COc1c(C)cnc(CN(C(=O)CCCCl)c2cc(Cl)nc(N)n2)c1C [SBI-0639902, N-(2-Amino-6-chloropyrimidin-4-yl)-4-chloro-N-((4-methoxy-3,5-dimethylpyridin-2-yl)methyl)butanamide]
[1]
  IC50: ≥ 32000 nM
[2]
  Ki: > 8000 nM
[3]
  IC50: > 32000 nM

## COc1cc(NCc2cc(OC)c(OC)c(OC)c2)nc(N)n1 [SBI-0633825]
[1]
  IC50: > 250000 nM
[2]
  Ki: > 2500 nM
[3]
  IC50: > 10000 nM

## CCCC(=O)N(Cc1ncc(C)c(OC)c1C)c1cc(Cl)nc(N)n1 [SBI-0640645]
[1]
  IC50: 30000 nM
[2]
  Ki: 7500 nM
[3]
  IC50: 30000 nM

## COc1c(C)cnc(CNc2cc(Cl)nc(N)n2)c1C [SBI-0206665]
[1]
  IC50: 7500 nM
[2]
  Ki: 1000 nM
[3]
  IC50: 4000 nM
  inhibition at 1 µM: 7%
  inhibition at 10 µM: 61%

## Cc1cnc(CNc2cc(Cl)nc(N)n2)c(C)c1I [SBI-0639220, 6-Chloro-N4-((4-iodo-3,5-dimethylpyridin-2-yl)methyl)pyrimidine-2,4-diamine]
[2]
  Ki: 110 nM
[3]
  IC50: 440 nM
  inhibition at 1 µM: 66%
  inhibition at 10 µM: 98%

## COc1c(C)cnc(CN(CCN2CCOCC2)c2cc(Cl)nc(N)n2)c1C [SBI-0640611, 6-Chloro-N4-((4-methoxy-3,5-dimethylpyridin-2-yl)methyl)-N4-(2-morpholinoethyl)pyrimidine-2,4-diamine]
[1]
  IC50: 1690 nM
[2]
  Ki: 423 nM
[3]
  IC50: 1690 nM

## COc1cccc2c1ccn2-c1cc(N)c(C(N)=O)c(NC2CCOCC2)c1 [SBI-0639186]
[2]
  Ki: > 2500 nM
[3]
  IC50: > 10000 nM
  inhibition at 1 µM: 5%
  inhibition at 10 µM: 10%

## COc1c(C)cnc(CN(C)c2cc(Cl)nc(N)n2)c1C [SBI-0639219, 6-Chloro-N4-((4-methoxy-3,5-dimethylpyridin-2-yl)methyl)-N4-methylpyrimidine-2,4-diamine]
[2]
  Ki: 213 nM
[3]
  IC50: 850 nM
  inhibition at 1 µM: 57%
  inhibition at 10 µM: 94%

## COc1c(C)cnc(CN(CCc2ccc3c(c2)OCO3)c2cc(Cl)nc(N)n2)c1C [SBI-0640607, N4-(2-(Benzo[d][1,3]dioxol-5-yl)ethyl)-6-chloro-N4-((4-methoxy-3,5-dimethylpyridin-2-yl)methyl)pyrimidine-2,4-diamine]
[1]
  IC50: 368 nM
[2]
  Ki: 92 nM
[3]
  IC50: 368 nM

## CCN(Cc1ncc(C)c(OC)c1C)c1cc(Cl)nc(N)n1 [SBI-0640612, 6-Chloro-N4-ethyl-N4-((4-methoxy-3,5-dimethylpyridin-2-yl)methyl)pyrimidine-2,4-diamine]
[1]
  IC50: 1140 nM
[2]
  Ki: 285 nM
[3]
  IC50: 1140 nM

## Cc1cnc(CN(C)c2cc(Cl)nc(N)n2)c(C)c1Cl [SBI-0639899, 6-Chloro-N4-((4-chloro-3,5-dimethylpyridin-2-yl)methyl)-N4-methylpyrimidine-2,4-diamine]
[1]
  IC50: 2150 nM
[2]
  Ki: 538 nM
[3]
  IC50: 2150 nM

## Nc1nc(Cl)cc(Nc2ccc3c(c2)OCO3)n1 [SBI-0636438]
[2]
  Ki: > 2500 nM
[3]
  IC50: > 10000 nM
  inhibition at 10 µM: 18%

## CCCCN(Cc1ncc(C)c(OC)c1C)c1cc(Cl)nc(N)n1 [SBI-0639354, N4-butyl-6-chloro-N4-((4-methoxy-3,5-dimethylpyridin-2-yl)methyl)pyrimidine-2,4-diamine]
[1]
  IC50: 719 nM
[2]
  Ki: 180 nM
[3]
  IC50: 720 nM

## COc1cc(CNc2ccnc(N)n2)cc(OC)c1OC [SBI-0634911]
[1]
  IC50: > 250000 nM
[2]
  Ki: > 2500 nM
[3]
  IC50: > 10000 nM

## C=CCN(Cc1ncc(C)c(OC)c1C)c1cc(Cl)nc(N)n1 [SBI-0639355, N4-Allyl-6-chloro-N4-((4-methoxy-3,5-dimethylpyridin-2-yl)methyl)pyrimidine-2,4-diamine]
[1]
  IC50: 2870 nM
[2]
  Ki: 718 nM
[3]
  IC50: 2870 nM

## Nc1nc(Cl)cc(NCc2ccc(Oc3ccccc3)cc2)n1 [SBI-0638967]
[2]
  Ki: > 2500 nM
[3]
  IC50: > 10000 nM
  inhibition at 10 µM: 10%

## COc1c(C)cnc(CN(C(=O)CC(C)(C)C)c2cc(Cl)nc(N)n2)c1C [SBI-0639901, N-(2-amino-6-chloropyrimidin-4-yl)-N-((4-methoxy-3,5-dimethylpyridin-2-yl)methyl)-3,3-dimethylbutanamide]
[1]
  IC50: 30000 nM
[2]
  Ki: 7500 nM
[3]
  IC50: 30000 nM

## Nc1nc(Cl)cc(NCc2ccc(-c3ccc(Cl)cc3F)cc2)n1 [SBI-0638966]
[2]
  Ki: > 2500 nM
[3]
  IC50: > 10000 nM
  inhibition at 10 µM: 34%

## CCOc1ccc(-c2ccc(CNc3cc(Cl)nc(N)n3)cc2)cc1 [SBI-0638969]
[2]
  Ki: > 2500 nM
[3]
  IC50: > 10000 nM
  inhibition at 10 µM: 3%

## COc1ccc(CNc2ccnc(N)n2)cc1OC [SBI-0634912]
[1]
  IC50: > 250000 nM
[2]
  Ki: > 2500 nM
[3]
  IC50: > 10000 nM

## COc1cc(CNc2nc(N)nc3[nH]ccc23)cc(OC)c1OC [SBI-0635446]
[2]
  Ki: > 2500 nM
[3]
  IC50: > 10000 nM
  inhibition at 10 µM: 10%

## COc1c(C)cnc(CN(CCCO)c2cc(Cl)nc(N)n2)c1C [SBI-0639349, 3-((2-Amino-6-chloropyrimidin-4-yl)((4-methoxy-3,5-dimethylpyridin-2-yl)methyl)amino)propan-1-ol]
[1]
  IC50: 1370 nM
[2]
  Ki: 343 nM
[3]
  IC50: 1370 nM

## Nc1nc(Cl)cc(NCc2ccc(-c3ccccc3)cc2)n1 [SBI-0633826]
[2]
  Ki: > 2500 nM
[3]
  IC50: > 10000 nM
  inhibition at 10 µM: 21%

## COc1cccc(CNc2cc(Cl)nc(N)n2)c1 [SBI-0630160]
[2]
  Ki: > 2500 nM
[3]
  IC50: > 10000 nM
  inhibition at 10 µM: 13%
